Measurements taken from patent US9115072B2, “Compounds and method for reducing uric acid” (WELLSTAT THERAPEUTICS CORPORATION, priority 2008, dated 2015).

Legend:
[1] = target: T1, human URAT1 (Homo sapiens, UniProt Q96S37); test: URAT1 inhibition assay, [8-14C] urate uptake in hURAT1-HEK cells; type: cell-based; settings: 50 μM [8-14C] urate
T1 construct: The full-length hURAT1 cDNA was obtained from the vector pCMV6-XL5 and subcloned into the expression vector pCMV6-Neo
T1 sequence (Q96S37 1-553): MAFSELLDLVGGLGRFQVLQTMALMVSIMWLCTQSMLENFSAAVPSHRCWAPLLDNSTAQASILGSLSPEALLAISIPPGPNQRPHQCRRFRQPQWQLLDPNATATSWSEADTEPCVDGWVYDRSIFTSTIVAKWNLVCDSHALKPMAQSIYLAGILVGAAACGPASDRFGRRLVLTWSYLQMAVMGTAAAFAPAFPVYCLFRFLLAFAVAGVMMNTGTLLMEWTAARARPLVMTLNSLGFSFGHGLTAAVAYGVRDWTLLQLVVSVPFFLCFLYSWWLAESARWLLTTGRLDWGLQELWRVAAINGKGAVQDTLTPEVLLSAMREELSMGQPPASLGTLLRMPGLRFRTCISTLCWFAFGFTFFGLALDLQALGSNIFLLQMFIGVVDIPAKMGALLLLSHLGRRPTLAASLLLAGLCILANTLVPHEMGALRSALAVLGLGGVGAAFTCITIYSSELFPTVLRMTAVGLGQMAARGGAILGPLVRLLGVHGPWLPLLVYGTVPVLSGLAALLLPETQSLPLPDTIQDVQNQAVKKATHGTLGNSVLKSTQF
Description: A suitable assay involves transfection of cells (e.g. human embryonic kidney cells; “HEK”) with a vector encoding human URAT1, followed by determination of the ability of transfected cells to take up radiolabeled uric acid. The activity of compounds as URAT1 inhibitors is evaluated by their ability to block uric acid uptake by transfected cells.
Urate (50-60 mCi/mmol; American Radio Chemicals, Cat. No. ARC0513).
Plasmid vector pCMV6-XL5 containing hURAT1 cDNA (Cat. No. SC125624) and the expression vector pCMV6-Neo (Cat. No. pCMVNEO) were obtained from OriGene Technologies, Inc. The full-length hURAT1 cDNA was obtained from the vector pCMV6-XL5 and subcloned into the expression vector pCMV6-Neo to create the hURAT1 expression plasmid pCMV6-hURAT1. The sequences were verified by automatic DNA sequencing.
For transfection experiments, cells were plated on 60 mm dishes in 1 ml media per dish. […] Stable transfectants expressing hURAT1 (herein after referred as hURAT1-HEK cells) or cells having only the expression vector pCMV6-Neo (herein after referred as mock-HEK cells) were verified using reverse transcription polymerase chain reaction (RT-PCR) methods.
Before the uptake assay started, the culture medium was removed and the cells were incubated for 5 min in 0.6 ml of HBSS. After that HBSS was removed, the prepared reaction solutions were added into each well and incubated for 5 min at room temperature. Then the reaction solution was removed, cells were washed twice with 0.6 ml of cold HBSS and lysed with 0.2 ml of 0.1 M NaOH for 20 min. […] Test compounds were dissolved in DMSO and the same concentration of DMSO was added into the wells of mock-HEK cells and the hURAT1-HEK cells that didn't contain test compounds. For each test compound, the uptake assay was performed 2 times and carried out in triplicate. Urate uptake of the cells for each test condition was presented as the average percent inhibition in comparison to the DMSO control. The radioactivity values obtained for the wells that contained DMSO were taken as 100% uptake of the cells. The observed concentration-percent inhibition data were fitted to a sigmoidal concentration-effect model, where: IC50^Slope=[(100*Conc^Slope)/% Inhibition]−Conc^Slope
Additional drug concentrations were tested for determination of IC-50 values for some compounds (Table 6).

[2] = Rat oral single-dose pharmacokinetic study; type: in vivo; settings: 100 mg/kg single oral gavage
Description: • 1. Male Sprague-Dowley rats received single oral gavage of Compound EH, 100 mg/kg, and plasma was collected at certain times. • 2. Rat plasma was stored at −80° C. until the day of analysis. • 3. Samples were thawed on 37° C. bath for 5 min and vortexed at top speed for 10 sec. • 4. Rat plasma, 0.1 mL was mixed with 0.2 mL Acetonitrile, vortexed 1 min, spun down 14000 rpm, 17000 g, at 4° C., for 25 min. • 5. Supernatants were filtered through 0.45 micron, 4 mm, PTFE membrane syringe filter (Phenomenex #AF0-3102-52), and 15 microL were injected and resolved on Luna 3 micron, 100 A pore, C8(2), 150×3 mm, reverse phase column (Phenomenex#00F-4248-YO, SN#259151-7) in 50 min linear gradient from 40% to 69% of (0.1% Formic Acid, 89.9% Acetonitrile, 10% Methanol) at 0.25 mL/min, 107 bar, 37° C. column temperature, method 406975M1, Sequence 0226-09A, Agilent 1100 LC-MS.
All samples were run in duplicate, 210 nm and 230 nm Absorbances, Negative and Positive ionization spectrograms recorded.
Step 1. Rat plasma from V2 and V3 animals (“vehicle”, pooled), 0.19 mL, was mixed with 0.01 mL 20× stock of Compound EH in Methanol to make 500 microM, 250 microM, 125 microM, . . . , concentrations of Compound EH in plasma.
For example: 190 microL plasma+10 microL of 10 mM Compound EH in methanol=0.2 mL plasma with 500 microM Compound EH.
Step 2. Samples from step 1 were vortexed for 10 sec at top speed.
Step 3. 0.4 mL of acetonitrile was added to all samples from Step 2, and all vials were vortexed at top speed for 1 min.
Step 4. All samples from step 3 were spun down 14000 rpm, 17000 g, at 4° C., for 25 min.
Step 5. Supernatants were filtered through 0.45 micron, 4 mm, PTFE membrane syringe filter (Phenomenex #AF0-3102-52), 15 microL were injected and resolved on Luna 3 micron, 100 A pore, C8(2), 150×3 mm, reverse phase column

- IC50 [1]: 80 nM
- inhibition at 10 µM ([1]; drug concentration typically 10 micromolar, read-out: % of Inhibition (uric acid uptake)): 95.9%
- concentration at 0 h ([2]; male, Sprague-Dawley, rat, plasma, time 0 HR, read-out: Compound EH concentration in rat plasma): 0 nM
- concentration at 0.25 h ([2]; male, Sprague-Dawley, rat, plasma, time 0.25 HR, read-out: Compound EH concentration in rat plasma): 349 µM
- concentration at 0.5 h ([2]; male, Sprague-Dawley, rat, plasma, time 0.5 HR, read-out: Compound EH concentration in rat plasma): 723 µM
- concentration at 2 h ([2]; male, Sprague-Dawley, rat, plasma, time 2 HR, read-out: Compound EH concentration in rat plasma): 79 µM
- concentration at 4 h ([2]; male, Sprague-Dawley, rat, plasma, time 4 HR, read-out: Compound EH concentration in rat plasma): 126 µM
- concentration at 6 h ([2]; male, Sprague-Dawley, rat, plasma, time 6 HR, read-out: Compound EH concentration in rat plasma): 112 µM
- concentration at 8 h ([2]; male, Sprague-Dawley, rat, plasma, time 8 HR, read-out: Compound EH concentration in rat plasma): 48 µM
- concentration at 24 h ([2]; male, Sprague-Dawley, rat, plasma, time 24 HR, read-out: Compound EH concentration in rat plasma): 0 nM
- Cmax ([2]; male, Sprague-Dawley, rat plasma): 723 µM
- AUC(0-24) ([2]; rat plasma): 1765 µM·h
Compound: Cc1ccc(CC(=O)O)cc1OCc1c(C)cccc1C [Compound EH, 2-(3-(2,6-Dimethylbenzyloxy)-4-methylphenyl)acetic acid]
